Patent US7786141B2 (Vertex Pharmaceuticals Incorporated, priority 2004, dated 2010)

How the values were obtained:
M1 muscarinic receptor = target: T1, M1 muscarinic receptor (Homo sapiens, UniProt P11229); test: Functional mobilization of intracellular calcium (FLIPR) in M1-CHO cells; assay type: cell-based; settings: Table 4; for Emax: 100% efficacy is the maximum response obtained with the Carbachol control; for M1 Activity: M1 receptor, calcium mobilization (FLIPR)
T1 construct: expressed in transfected cells; host or cells: CHO (M1-CHO)
T1 sequence (P11229 1-460): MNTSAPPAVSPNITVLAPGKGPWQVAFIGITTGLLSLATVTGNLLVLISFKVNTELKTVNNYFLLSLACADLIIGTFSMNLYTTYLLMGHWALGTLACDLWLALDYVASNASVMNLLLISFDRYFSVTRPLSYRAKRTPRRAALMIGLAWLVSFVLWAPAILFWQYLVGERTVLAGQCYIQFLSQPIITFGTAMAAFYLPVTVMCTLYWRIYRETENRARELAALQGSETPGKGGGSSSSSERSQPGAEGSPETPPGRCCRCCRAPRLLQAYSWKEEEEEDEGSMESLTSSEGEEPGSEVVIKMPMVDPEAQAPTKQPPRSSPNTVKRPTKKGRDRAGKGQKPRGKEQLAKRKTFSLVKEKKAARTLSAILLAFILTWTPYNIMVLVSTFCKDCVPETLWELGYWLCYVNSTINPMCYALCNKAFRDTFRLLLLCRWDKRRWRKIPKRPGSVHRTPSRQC
Procedure, shortened: (§1)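 FLIPR Ca2+ read, ex 488/em 540 nm, 60 s. Recombinant CHO lines (M1 or M4), dye-loaded Fluo-3 AM 60-90 min at 37° C, probenecid 1 mM, pH 7.4. Agonist: compound alone; inhibition: 15 min compound pre-incubation, then carbachol at EC80 for that subtype.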

M4 muscarinic receptor = target: T2, M4 muscarinic receptor (Homo sapiens, UniProt P08173); test: Functional mobilization of intracellular calcium (FLIPR) in M4-CHO cells; assay type: cell-based; settings: Table 4; for Emax: 100% efficacy is the maximum response obtained with the Carbachol control; for M4 Activity: M4 receptor, calcium mobilization (FLIPR)
T2 construct: expressed in transfected cells; host or cells: CHO (M4-CHO)
T2 sequence (P08173 1-479): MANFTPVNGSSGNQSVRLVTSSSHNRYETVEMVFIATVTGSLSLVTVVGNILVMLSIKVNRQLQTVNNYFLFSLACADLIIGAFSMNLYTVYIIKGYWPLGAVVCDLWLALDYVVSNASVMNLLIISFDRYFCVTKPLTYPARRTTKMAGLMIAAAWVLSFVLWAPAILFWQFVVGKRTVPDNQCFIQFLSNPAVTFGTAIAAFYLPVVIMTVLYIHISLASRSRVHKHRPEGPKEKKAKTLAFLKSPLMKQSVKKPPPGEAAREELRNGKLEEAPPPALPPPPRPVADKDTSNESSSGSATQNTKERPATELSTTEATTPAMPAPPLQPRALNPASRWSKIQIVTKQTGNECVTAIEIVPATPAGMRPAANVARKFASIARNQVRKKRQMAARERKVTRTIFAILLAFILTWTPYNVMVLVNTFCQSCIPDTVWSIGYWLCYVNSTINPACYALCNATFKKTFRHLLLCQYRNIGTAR
Procedure, shortened: as §1

SMILES | Emax (M1 muscarinic receptor) [%] | M1 Activity (M1 muscarinic receptor) | Emax (M4 muscarinic receptor) [%] | M4 Activity (M4 muscarinic receptor)
CN(C)C(=O)N1CC2(CCN(C[C@H]3CCN(C(=O)OCC(F)F)C3)CC2)c2cc(F)ccc21 [compound 848] | 25 to 100 | xxx (activity was measured to be less than 2.0 μM) | > 100 | xxx (activity was measured to be less than 2.0 μM)
CCOC1CCCCC1N1CCC2(CC1)CN(C(C)=O)c1ccc(F)cc12 (stereo not drawn) [compound 849] | < 25 | x (activity was measured to be greater than 5.0 μM) | < 25 | x (activity was measured to be greater than 5.0 μM)
CCOC(=O)N1CCC(N2CCC3(CC2)CN(C(=O)CCC(C)=O)c2ccc(F)cc23)CC1 [compound 851] | 25 to 100 | xxx (activity was measured to be less than 2.0 μM) | 25 to 100 | xxx (activity was measured to be less than 2.0 μM)
CN(C)C(=O)N1CC2(CCN(C[C@H]3CCN(c4nccs4)C3)CC2)c2cc(F)ccc21 [compound 852] | 25 to 100 | xx (activity was measured to be between 2.0 μM and 5.0 μM) | 25 to 100 | xxx (activity was measured to be less than 2.0 μM)
CC#CCOC(=O)N1CCC(N2CCC3(CC2)CN(CCOC)c2ccc(F)cc23)CC1 [compound 853] | 25 to 100 | xxx (activity was measured to be less than 2.0 μM) | 25 to 100 | xxx (activity was measured to be less than 2.0 μM)
O=C1CCCN1[C@H]1CCC2(CCN([C@H]3CC4CC[C@H](C4)C3)CC2)c2ccccc21 [compound 854] | 25 to 100 | xxx (activity was measured to be less than 2.0 μM) | 25 to 100 | xxx (activity was measured to be less than 2.0 μM)
CCOC(=O)N1CCC(N2CCC3(CC2)CN(c2cncnc2)c2ccc(F)cc23)CC1 [compound 855] | 25 to 100 | xxx (activity was measured to be less than 2.0 μM) | 25 to 100 | xxx (activity was measured to be less than 2.0 μM)
O=C1CCCN1[C@H]1CCC2(CCN(C[C@@H]3C[C@H]4C=CC3C4)CC2)c2ccccc21 [compound 856] | 25 to 100 | xxx (activity was measured to be less than 2.0 μM) | 25 to 100 | xxx (activity was measured to be less than 2.0 μM)
CCOC(=O)N1CCC(N2CCC3(CC2)CN(C(C)=O)c2c(-c4ccccc4)cccc23)CC1 [compound 857] | 25 to 100 | x (activity was measured to be greater than 5.0 μM) | < 25 | x (activity was measured to be greater than 5.0 μM)
CCOC(=O)N1CCC(N2CCC3(CC2)CN(C(C)=O)c2c(CC)cccc23)CC1 [compound 859] | 25 to 100 | x (activity was measured to be greater than 5.0 μM) | 25 to 100 | x (activity was measured to be greater than 5.0 μM)
CC(=O)N1CC2(CCN(C[C@H]3CCN(c4cnccn4)C3)CC2)c2c(C)cccc21 [compound 860] | 25 to 100 | xxx (activity was measured to be less than 2.0 μM) | 25 to 100 | xxx (activity was measured to be less than 2.0 μM)
CC(=O)N[C@H]1CCC2(CCN([C@H]3CC4CC[C@H](C4)C3)CC2)c2ccccc21 [compound 861] | 25 to 100 | xxx (activity was measured to be less than 2.0 μM) | 25 to 100 | xxx (activity was measured to be less than 2.0 μM)
CCOC(=O)N1CCC(N2CCC3(CC2)CN(C(C)=O)c2ccc(C#N)cc23)CC1 [compound 862] | 25 to 100 | xxx (activity was measured to be less than 2.0 μM) | 25 to 100 | xxx (activity was measured to be less than 2.0 μM)
Cc1ccc2c(c1)C(=O)CC21CCN(C2CCCCCC2)CC1 [compound 863] | 25 to 100 | x (activity was measured to be greater than 5.0 μM) | 25 to 100 | xx (activity was measured to be between 2.0 μM and 5.0 μM)
CC(=O)N1CC2(CCN(C[C@H]3CCN(C(=O)OC(C)C)C3)CC2)c2ccccc21 [compound 864] | < 25 | x (activity was measured to be greater than 5.0 μM) | < 25 | x (activity was measured to be greater than 5.0 μM)
CCO/N=C1\CC2(CCN([C@@H]3C[C@@H]4CC[C@@H]3C4)CC2)c2cc(Cl)ccc21 [compound 865] | 25 to 100 | xx (activity was measured to be between 2.0 μM and 5.0 μM) | 25 to 100 | xxx (activity was measured to be less than 2.0 μM)
CN(C)C(=O)N1CC2(CCN(C3CCN(c4cccc(F)c4)CC3)CC2)c2cc(F)ccc21 [compound 866] | 25 to 100 | xx (activity was measured to be between 2.0 μM and 5.0 μM) | 25 to 100 | xxx (activity was measured to be less than 2.0 μM)
O=C(N[C@H]1CC2(CCN([C@@H]3C[C@@H]4CC[C@@H]3C4)CC2)c2ccccc21)c1ccoc1 [compound 868] | < 25 | x (activity was measured to be greater than 5.0 μM) | 25 to 100 | xxx (activity was measured to be less than 2.0 μM)
CCOC(=O)N1CCC(CN2CCC3(CC2)CN(C(C)=O)c2c(C)cc(C)cc23)CC1 [compound 869] | 25 to 100 | xx (activity was measured to be between 2.0 μM and 5.0 μM) | 25 to 100 | xxx (activity was measured to be less than 2.0 μM)
CC(=O)N1CC2(CCN(C[C@H]3CCN(C(=O)OCC(F)F)C3)CC2)c2ccccc21 [compound 871] | 25 to 100 | x (activity was measured to be greater than 5.0 μM) | 25 to 100 | xx (activity was measured to be between 2.0 μM and 5.0 μM)
CCOC(=O)N1CCC(N2CCC3(CC2)CN(C(C)=O)c2ccc(C(C)C)cc23)CC1 [compound 872] | 25 to 100 | xxx (activity was measured to be less than 2.0 μM) | 25 to 100 | xxx (activity was measured to be less than 2.0 μM)
CC1=C(CCN2CCC3(CC2)C[C@H](NC(=O)C2CCCC2)c2ccccc23)C(C)(C)CCC1 [compound 873] | < 25 | x (activity was measured to be greater than 5.0 μM) | < 25 | x (activity was measured to be greater than 5.0 μM)
CC(=O)NC1CCC2(CCN(CCC3CCCN(C(C)=O)C3)CC2)c2ccccc21 (stereo not drawn) [compound 874] | 25 to 100 | xx (activity was measured to be between 2.0 μM and 5.0 μM) | < 25 | x (activity was measured to be greater than 5.0 μM)
COC(=O)N1CCC(CCN2CCC3(CCC(NC(C)=O)c4ccccc43)CC2)CC1 (stereo not drawn) [compound 875] | 25 to 100 | xxx (activity was measured to be less than 2.0 μM) | < 25 | x (activity was measured to be greater than 5.0 μM)
